Assay results: paper PMC6150413 (Molecules : A Journal of Synthetic Chemistry and Natural …, 2017)
Read-outs that look alike come from different tables or passages of the source. Peptide text beside a SMILES is read from it.

Key:
[1] = system: S. aureus ATCC 25923
Experimental: (§1) The antimicrobial activities of VIP and its analogues were tested against S. aureus ATCC 25923 and E. coli ATCC 25922 according to the method reported by Wani et al. with slight modification. The final peptide concentrations ranged from 0.5 to 256 μM. The tests were performed in triplicate using 4 replicates for each experiment. In addition, S. aureus ATCC 25923 and E. coli ATCC 25922 (2 × 10^6 CFU/mL) were treated with natural VIP and VIP8 at MIC for 2 h. […] The haemolytic activity of VIP and VIP derivatives were measured using porcine erythrocytes according to previous method. MTT (3-[4,5 dimethylthiozol-2-yl]-2,5-diphenyltetrazolium bromide) was used to determine the cytotoxicity of VIP and its analogue on porcine intestinal epithelial cells IPEC-J2. Stable experiments were conducted with reference to the literature with slightly changes. First, the pH of the mediums was adjusted to acidic (pH 4.0, pH 5.0, and pH 6.0) and basic (pH 8.0, pH 9.0, and pH 10.0) conditions. To investigate the effects of ion strength, the bacterial mediums were supplemented with different concentrations of NaCl (20 mM, 60 mM, and 180 mM) or MgCl2 (1 mM, 25 mM, and 50 mM). Then, bacteria were incubated with VIP, VIP analogues 2 and 8, respectively. After 3 h of incubation, bacterial viability was measured with a Synergy HT multimode reader (BioTek, Winooski, VT, USA) at 600 nm.
(§2) Both the agar diffusion test and modified broth microdilution method were used to evaluate the antimicrobial activity of recombinant expressed VIP8. For the Oxford cup agar diffusion, the sample was added to an Oxford cup, which was then placed on a Mueller-Hinton agar plate containing 1 × 10^5 colony-forming units of S. aureus […]. Chemically-synthesized VIP8 and ampicillin were used as the positive control. The minimal inhibition concentration was determined by the method reported by Wani et al..

[2] = system: E. coli ATCC 25922
Experimental: as §1, §2

[3] = system: 3T3-L1 cells
[4] = S. aureus ATCC 25923, peptide 0.5 to 256 μM, triplicate, 4 replicates each, Table 2
[5] = E. coli ATCC 25922, peptide 0.5 to 256 μM, triplicate, 4 replicates each, Table 2

Structure (SMILES)	MBC (minimum bactericidal concentration) ([1]; ATCC 25923, 2 h)	MIC (minimum inhibitory concentration) ([1]; ATCC 25923, 2 h)	MBC (minimum bactericidal concentration) ([2]; ATCC 25922, 2 h)	MIC (minimum inhibitory concentration) ([2]; ATCC 25922, 2 h)	Cytotoxicity (in words) [3]	MIC (minimal inhibitory concentration) ([1]; ATCC 25923, 2 h)	MIC (minimal inhibitory concentration) ([2]; ATCC 25922, 2 h)	MBC (minimum bactericidal concentration) [1, 4]	MIC (minimum inhibitory concentration) [1, 4]	MBC (minimum bactericidal concentration) [2, 5]	MIC (minimum inhibitory concentration) [2, 5]
CC[C@H](C)[C@H](NC(=O)[C@H](CO)NC(=O)[C@H](CC(N)=O)NC(=O)[C@H](CC(C)C)NC(=O)[C@H](Cc1ccc(O)cc1)NC(=O)[C@H](CCCCN)NC(=O)[C@H](CCCCN)NC(=O)[C@@H](NC(=O)[C@H](C)NC(=O)[C@H](CCSC)NC(=O)[C@H](CCC(N)=O)NC(=O)[C@H](CCCCN)NC(=O)[C@H](CCCNC(=N)N)NC(=O)[C@H](CC(C)C)NC(=O)[C@H](CCCNC(=N)N)NC(=O)[C@@H](NC(=O)[C@H](Cc1ccc(O)cc1)NC(=O)[C@H](CC(N)=O)NC(=O)[C@H](CC(=O)O)NC(=O)[C@@H](NC(=O)[C@H](Cc1ccccc1)NC(=O)[C@@H](NC(=O)[C@H](C)NC(=O)[C@H](CC(=O)O)NC(=O)[C@H](CO)NC(=O)[C@@H](N)Cc1c[nH]cn1)C(C)C)[C@@H](C)O)[C@@H](C)O)C(C)C)C(=O)N[C@@H](CC(C)C)C(=O)N[C@H](C(=O)O)[C@@H](C)O [VIP4] (H-HSDAVFTDNYTRLRKQMAVKKYLNSILT-OH)	>256 µM	>256 µM	>256 µM	>256 µM							
CC[C@H](C)[C@H](NC(=O)[C@H](CO)NC(=O)[C@H](CC(N)=O)NC(=O)[C@H](CC(C)C)NC(=O)[C@H](Cc1ccc(O)cc1)NC(=O)[C@H](CCCCN)NC(=O)[C@H](CCCCN)NC(=O)[C@@H](NC(=O)[C@H](C)NC(=O)[C@H](CCSC)NC(=O)[C@H](CCC(N)=O)NC(=O)[C@H](CCCCN)NC(=O)[C@H](CCCNC(=N)N)NC(=O)[C@H](CC(C)C)NC(=O)[C@H](CCCNC(=N)N)NC(=O)[C@@H](NC(=O)[C@H](Cc1ccc(O)cc1)NC(=O)[C@H](CC(N)=O)NC(=O)[C@H](CCCCN)NC(=O)[C@@H](NC(=O)[C@H](Cc1ccccc1)NC(=O)[C@@H](NC(=O)[C@H](C)NC(=O)[C@H](CCCCN)NC(=O)[C@H](CO)NC(=O)[C@@H](N)Cc1c[nH]cn1)C(C)C)[C@@H](C)O)[C@@H](C)O)C(C)C)C(=O)N[C@@H](CC(C)C)C(=O)N[C@@H](CC(N)=O)C(=O)O [VIP2] (H-HSKAVFTKNYTRLRKQMAVKKYLNSILN-OH)	128 µM	64 µM	32 µM	16 µM	no cytotoxicity						
CC[C@H](C)[C@H](NC(=O)[C@H](CO)NC(=O)[C@H](CC(N)=O)NC(=O)[C@H](CC(C)C)NC(=O)[C@H](Cc1ccc(O)cc1)NC(=O)[C@H](CCCCN)NC(=O)[C@H](CCCCN)NC(=O)[C@@H](NC(=O)[C@H](C)NC(=O)[C@H](CCSC)NC(=O)[C@H](CCC(N)=O)NC(=O)[C@H](CCCCN)NC(=O)[C@H](CCCNC(=N)N)NC(=O)[C@H](CC(C)C)NC(=O)[C@H](CCCNC(=N)N)NC(=O)[C@@H](NC(=O)[C@H](Cc1ccc(O)cc1)NC(=O)[C@H](CC(N)=O)NC(=O)[C@H](CCCCN)NC(=O)[C@@H](NC(=O)[C@H](Cc1ccccc1)NC(=O)[C@@H](NC(=O)[C@H](C)NC(=O)[C@H](CCCCN)NC(=O)[C@H](CO)NC(=O)[C@@H](N)Cc1c[nH]cn1)C(C)C)[C@@H](C)O)[C@@H](C)O)C(C)C)C(=O)N[C@@H](CC(C)C)C(=O)N[C@H](C(=O)O)[C@@H](C)O [VIP5] (H-HSKAVFTKNYTRLRKQMAVKKYLNSILT-OH)	>256 µM	>256 µM	>256 µM	>256 µM							
CC[C@H](C)[C@H](NC(=O)[C@H](C)NC(=O)[C@H](C)NC(=O)[C@H](CC(C)C)NC(=O)[C@H](Cc1ccc(O)cc1)NC(=O)[C@H](CCCNC(=N)N)NC(=O)[C@H](CCCNC(=N)N)NC(=O)[C@@H](NC(=O)[C@H](C)NC(=O)[C@H](CC(C)C)NC(=O)[C@H](CCC(N)=O)NC(=O)[C@H](CCCNC(=N)N)NC(=O)[C@H](CCCNC(=N)N)NC(=O)[C@H](CC(C)C)NC(=O)[C@H](CCCNC(=N)N)NC(=O)[C@@H](NC(=O)[C@H](Cc1ccc(O)cc1)NC(=O)[C@H](CC(N)=O)NC(=O)[C@H](C)NC(=O)[C@@H](NC(=O)[C@H](Cc1ccccc1)NC(=O)[C@@H](NC(=O)[C@H](C)NC(=O)[C@H](CC(=O)O)NC(=O)[C@H](CO)NC(=O)[C@@H](N)Cc1c[nH]cn1)C(C)C)[C@@H](C)O)[C@@H](C)O)C(C)C)C(=O)N[C@@H](CC(C)C)C(=O)NCC(=O)N[C@@H](CCCNC(=N)N)C(=O)N[C@@H](CCCNC(=N)N)C(=O)O [VIP7] (H-HSDAVFTANYTRLRRQLAVRRYLAAILGRR-OH)	32 µM	16 µM	8 µM	8 µM							
CC[C@H](C)[C@H](NC(=O)CNC(=O)[C@H](CCC(=O)O)NC(=O)[C@H](CO)NC(=O)[C@@H](NC(=O)[C@H](CCCNC(=N)N)NC(=O)[C@H](CCCCN)NC(=O)[C@H](CCCCN)NC(=O)[C@H](C)NC(=O)[C@H](CO)NC(=O)[C@H](CC(N)=O)NC(=O)[C@H](CCC(=O)O)NC(=O)[C@H](CC(C)C)NC(=O)[C@H](CCCCN)NC(=O)[C@H](CCCCN)NC(=O)[C@H](C)NC(=O)[C@@H](NC(=O)[C@H](CCCCN)NC(=O)[C@H](CO)NC(=O)[C@H](CC(C)C)NC(=O)[C@H](Cc1c[nH]c2ccccc12)NC(=O)[C@@H](N)CO)[C@@H](C)O)[C@@H](C)CC)C(=O)N[C@@H](C)C(=O)N[C@H](C(=O)N[C@@H](C)C(=O)N[C@H](C(=O)N[C@@H](CCC(N)=O)C(=O)NCC(=O)NCC(=O)N1CCC[C@H]1C(=O)N[C@@H](CCCNC(=N)N)C(=O)O)[C@@H](C)CC)[C@@H](C)CC [Cecropin P1, reference compound] (H-SWLSKTAKKLENSAKKRISEGIAIAIQGGPR-OH)	8 µM	8 µM	4 µM	2 µM		8 µM	2 µM				
CC[C@H](C)[C@H](NC(=O)[C@H](CO)NC(=O)[C@H](CC(N)=O)NC(=O)[C@H](CC(C)C)NC(=O)[C@H](CO)NC(=O)[C@H](CCCCN)NC(=O)[C@H](CCCCN)NC(=O)[C@@H](NC(=O)[C@H](C)NC(=O)[C@H](CCSC)NC(=O)[C@H](CCC(N)=O)NC(=O)[C@H](CCCCN)NC(=O)[C@H](CCCNC(=N)N)NC(=O)[C@H](CC(C)C)NC(=O)[C@H](CCCNC(=N)N)NC(=O)[C@@H](NC(=O)[C@H](CO)NC(=O)[C@H](CC(N)=O)NC(=O)[C@H](CC(=O)O)NC(=O)[C@@H](NC(=O)[C@H](Cc1ccccc1)NC(=O)[C@@H](NC(=O)[C@H](C)NC(=O)[C@H](CC(=O)O)NC(=O)[C@H](CO)NC(=O)[C@@H](N)Cc1c[nH]cn1)C(C)C)[C@@H](C)O)[C@@H](C)O)C(C)C)C(=O)N[C@@H](CC(C)C)C(=O)N[C@H](C(=O)O)[C@@H](C)O [VIP6] (H-HSDAVFTDNSTRLRKQMAVKKSLNSILT-OH)	>256 µM	>256 µM	>256 µM	>256 µM							
CC[C@H](C)[C@H](NC(=O)[C@H](CO)NC(=O)[C@H](CC(N)=O)NC(=O)[C@H](CC(C)C)NC(=O)[C@H](CO)NC(=O)[C@H](CCCCN)NC(=O)[C@H](CCCCN)NC(=O)[C@@H](NC(=O)[C@H](C)NC(=O)[C@H](CCSC)NC(=O)[C@H](CCC(N)=O)NC(=O)[C@H](CCCCN)NC(=O)[C@H](CCCNC(=N)N)NC(=O)[C@H](CC(C)C)NC(=O)[C@H](CCCNC(=N)N)NC(=O)[C@@H](NC(=O)[C@H](CO)NC(=O)[C@H](CC(N)=O)NC(=O)[C@H](CC(=O)O)NC(=O)[C@@H](NC(=O)[C@H](Cc1ccccc1)NC(=O)[C@@H](NC(=O)[C@H](C)NC(=O)[C@H](CC(=O)O)NC(=O)[C@H](CO)NC(=O)[C@@H](N)Cc1c[nH]cn1)C(C)C)[C@@H](C)O)[C@@H](C)O)C(C)C)C(=O)N[C@@H](CC(C)C)C(=O)N[C@@H](CC(N)=O)C(=O)O [VIP3] (H-HSDAVFTDNSTRLRKQMAVKKSLNSILN-OH)								>256 µM	>256 µM	>256 µM	>256 µM
